Data set [1] concerns osteoporosis model mice (OVX). Nature of the data set: New bone formation in vivo, micro-CT of femurs. Particulars: one month, M@P@T 200 μg kg^−1 oral, TRP 20 μg kg^−1 SC daily. Here is the method:
This study was approved by the Animal Ethics Committee of Wuhan University (ethics number WP20230395), and all animal experiments were conducted in accordance with the Regulations on the Management of Experimental Animals in China and the guidelines of the Committee for Animal Care and Use at Wuhan University. In this study, 6-week-old female C57 mice (purchased from Beijing HFK Bioscience Co., Ltd.) were randomly divided into five groups (Sham, OVX, M@P, M@P@T, and TRP SC). Bilateral ovariectomy was performed via a dorsal incision to establish an osteoporosis model. In the Sham group, the same volume of fat tissue was removed bilaterally. After surgery, the mice were regularly given penicillin and pain medication. All mice were housed in a comfortable environment at 22–25 °C and […] and had free access to food and water. The successful construction of the osteoporosis model was confirmed two months after surgery via micro–computed tomography (micro-CT).
To validate the in vivo efficacy of the NPs, we measured various bone parameters related to the formation of new bone and its internal structure using micro-CT (SkyScan 1276) following the ASBMR reporting standards. […] The efficacy of new bone formation was assessed by comparing these parameters determined from the control and treatment groups.

Data set [2] is described as follows: In vivo pharmacokinetics, serum TRP by ELISA. Particulars: osteoporotic mice. As for the experimental part:
The pharmacokinetics and pharmacodynamics of M@P@T NPs were evaluated using the osteoporosis mice model. Mice were randomly divided into three experimental groups, with five mice per group: TRP SC, M@P, and M@P@T. M@P NPs (200 μg kg^−1) and M@P@T NPs (200 μg kg^−1) were administered by oral gavage, while TRP (20 μg kg^−1) was injected subcutaneously. Serum TRP concentrations were measured using an ELISA kit. Blood samples were collected at 0, 0.5, 1, 1.5, 2, 3, 6, 8, and 12 h post-administration to determine TRP concentration. The area under the serum TRP concentration−time curve (AUC) was calculated to determine the relative bioavailability of M@P@T. The pharmacokinetic parameters of M@P@T were then compared to those of TRP SC and M@P groups.
In general terms: In an ELISA, binding on a coated surface is turned into a signal by an enzyme label.

On to `CC[C@H](C)[C@H](NC(=O)[C@H](CCC(=O)O)NC(=O)[C@H](CO)NC(=O)[C@@H](NC(=O)[C@@H](N)CO)C(C)C)C(=O)N[C@@H](CCC(N)=O)C(=O)N[C@@H](CC(C)C)C(=O)N[C@@H](CCSC)C(=O)N[C@@H](Cc1cnc[nH]1)C(=O)N[C@@H](CC(N)=O)C(=O)N[C@@H](CC(C)C)C(=O)NCC(=O)N[C@@H](CCCCN)C(=O)N[C@@H](Cc1cnc[nH]1)C(=O)N[C@@H](CC(C)C)C(=O)N[C@@H](CC(N)=O)C(=O)N[C@@H](CO)C(=O)N[C@@H](CCSC)C(=O)N[C@@H](CCC(=O)O)C(=O)N[C@@H](CCCN=C(N)N)C(=O)N[C@H](C(=O)N[C@@H](CCC(=O)O)C(=O)N[C@@H](Cc1c[nH]c2ccccc12)C(=O)N[C@@H](CC(C)C)C(=O)N[C@@H](CCCN=C(N)N)C(=O)N[C@@H](CCCCN)C(=O)N[C@@H](CCCCN)C(=O)N[C@@H](CC(C)C)C(=O)N[C@@H](CCC(N)=O)C(=O)N[C@@H](CC(=O)O)C(=O)N[C@H](C(=O)N[C@@H](Cc1cnc[nH]1)C(=O)N[C@@H](CC(N)=O)C(=O)N[C@@H](Cc1ccccc1)C(=O)O)C(C)C)C(C)C` [TRP, teriparatide], for which the “new bone formation (3D reconstruction)” value in data set [1] is recorded as “more new bone formation than the other groups”. For the same compound, the “time to return to the baseline level” value in data set [2] (20 μg kg^−1 SC) is listed as at most 2 h. The Tmax in data set [2] (mouse, in vivo, 20 ug/kg, 20 μg kg^−1 SC, read-out: time of peak plasma concentration of TRP) came out at 30 min. The AUC(0-t) (usually exposure summed from dosing to a finite time, without extrapolation to infinity) in data set [2] (mouse, sc, 20 ug/kg, n = 5, TRP 20 µg/kg s.c., M@P and M@P@T 200 µg/kg oral, serum TRP ELISA, 0-12 h, mean ± SD) was determined as 0.117 ± 0.0112 ng·h/mL. Besides, in data set [2] (n = 5, relative to TRP 20 µg/kg s.c., oral 200 µg/kg), the “F, relative bioavailability” value came to 100%.

These data come from publication PMC12481929, “Oral delivery of teriparatide utilizing biocompatible transferrin-engineered MOF nanoparticles for osteoporosis therapy” (Materials Today Bio, 2025).
